Assay results from patent publication US8987195B2 (priority 2012, dated 2015).
Where two headings read alike, the source gives them in different places.

Legend:
HCV genotype 1b replicon = assay: HCV replicon assay, genotype 1b replicon EC50; type: cell-based, Hepatitis C virus; conditions: genotype 1b replicon, read-out: EC50 [gt-1b]
Outline: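 Cells harbouring a stable replicon are grown under G418 selection, then plated with test compound in G418-free medium for 24-48 hours. After washing and lysis, RNA or luciferase signal is measured and expressed as percent of DMSO control to give EC50.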

[1] = molecular target: HCV NS3/4A protease genotype 1b (Hepatitis C virus genotype 1b, UniProt P26663); assay: HCV NS3/4A protease time-resolved fluorescence (TRF) assay, Ki against genotype 1b; type: biochemical; conditions: IC50 [gt-1b] (nM), NS3/4A genotype 1b, enzyme 0.2 nM
Outline: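 Enzyme 0.2 nM 1b / 0.4 nM A156T / 0.025 nM 3a; 30 min preinc. w/ cpd; 25 nM TRF peptide; 2.5 h RT; ex 340/em 615 time-delayed; 4-param IC50 → Ki = IC50/(1+[S]/KM).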

Compound	EC50 (HCV genotype 1b replicon; Hepatitis C virus)	IC50 [1]	EC50 (HCV genotype 1b replicon; Hepatitis C virus, K+ salt)	IC50 ([1]; K+ salt)	EC50 (HCV genotype 1b replicon)
CC(C)OC(=O)N[C@H]1CCCCC/C=C\[C@@H]2C[C@@]2(C(=O)NS(=O)(=O)C2(C)CC2)NC(=O)[C@@H]2C[C@]3(CCc4c(c(C(F)F)nc5ccccc45)O3)CN2C1=O [Example 317, propan-2-yl [(2R,6S,12Z,13aS,14aR,16aS)-5′-(difluoromethyl)-14a-{[(1-methylcyclopropyl)sulfonyl]carbamoyl}-5,16-dioxo-1,1′,2′,5,6,7,8,9,10,11,13a,14,14a,15,16,16a-hexadecahydrospiro[cyclopropa[e]pyrrolo[1,2-a][1,4]diazacyclopentadecine-2,3′-pyrano[2,3-c]quinolin]-6-yl]carbamate]	3.25 nM	0.023 nM	–	–	–
COc1ccc2nc(C)c3c(c2n1)CC[C@]1(C[C@H]2C(=O)N[C@]4(C(=O)NS(=O)(=O)C5(C)CC5)C[C@H]4/C=C\CCCCC[C@H](NC(=O)OC(C)(C)C(F)(F)F)C(=O)N2C1)O3 [Example 318, 1,1,1-trifluoro-2-methylpropan-2-yl [(2R,6S,12Z,13aS,14aR,16aS)-2′-methoxy-6′-methyl-14a-{[(1-methylcyclopropyl)sulfonyl]carbamoyl}-5,16-dioxo-1,5,6,7,8,9,9′,10,10′,11,13a,14,14a,15,16,16a-hexadecahydrospiro[cyclopropa[e]pyrrolo[1,2-a][1,4]diazacyclopentadecine-2,8′-pyrano[2,3-c][1,5]naphthyridin]-6-yl]carbamate]	4.99 nM	0.013 nM	–	–	–
Cc1nc2ccc(C(F)(F)F)cc2c2c1O[C@]1(CC2)C[C@H]2C(=O)N[C@]3(C(=O)NS(=O)(=O)C4(C)CC4)C[C@H]3/C=C\CCCCC[C@H](NC(=O)OC(C)(C)C(F)(F)F)C(=O)N2C1 [Example 319, 1,1,1-trifluoro-2-methylpropan-2-yl [(2R,6S,12Z,13aS,14aR,16aS)-5′-methyl-14a-{[(1-methylcyclopropyl)sulfonyl]carbamoyl}-5,16-dioxo-9′-(trifluoromethyl)-1,1′,2′,5,6,7,8,9,10,11,13a,14,14a,15,16,16a-hexadecahydrospiro[cyclopropa[e]pyrrolo[1,2-a][1,4]diazacyclopentadecine-2,3′-pyrano[2,3-c]quinolin]-6-yl]carbamate]	–	–	17.8 nM	0.044 nM	–
Cc1nc2ccccc2c2c1O[C@]1(CC2)C[C@H]2C(=O)N[C@]3(C(=O)NS(=O)(=O)C4(C)CC4)C[C@H]3/C=C\CCCCC[C@H](NC(=O)OC3CC(F)(F)C3(F)F)C(=O)N2C1 (stereo partly drawn) [Example 320, 2,2,3,3-tetrafluorocyclobutyl [(2R,6S,12Z,13aS,14aR,16aS)-5′-methyl-14a-{[(1-methylcyclopropyl)sulfonyl]carbamoyl}-5,16-dioxo-1,1′,2′,5,6,7,8,9,10,11,13a,14,14a,15,16,16a-hexadecahydrospiro[cyclopropa[e]pyrrolo[1,2-a][1,4]diazacyclopentadecine-2,3′-pyrano[2,3-c]quinolin]-6-yl]carbamate]	4.44 nM	0.013 nM	–	–	–
Cc1nc2ccccc2c2c1O[C@]1(CC2)C[C@H]2C(=O)N[C@]3(C(=O)NS(=O)(=O)C4(C)CC4)C[C@H]3/C=C\CCCCC[C@H](NC(=O)OC3CC(F)(F)C3(F)F)C(=O)N2C1 (stereo partly drawn) [Example 321, 2,2,3,3-tetrafluorocyclobutyl [(2R,6S,12Z,13aS,14aR,16aS)-5′-methyl-14a-{[(1-methylcyclopropyl)sulfonyl]carbamoyl}-5,16-dioxo-1,1′,2′,5,6,7,8,9,10,11,13a,14,14a,15,16,16a-hexadecahydrospiro[cyclopropa[e]pyrrolo[1,2-a][1,4]diazacyclopentadecine-2,3′-pyrano[2,3-c]quinolin]-6-yl]carbamate]	–	0.03 nM	–	–	7.16 nM
CC(C)(OC(=O)N[C@H]1CCCCC/C=C\[C@@H]2C[C@@]2(C(=O)NS(=O)(=O)C2(C)CC2)NC(=O)[C@@H]2C[C@]3(CCc4c(c(C5CC5)nc5ccc6c(c45)OCO6)O3)CN2C1=O)C(F)(F)F [Example 322, 1,1,1-trifluoro-2-methylpropan-2-yl [(2R,6S,12Z,13aS,14aR,16aS)-7′-cyclopropyl-14a-{[(1-methylcyclopropyl)sulfonyl]carbamoyl}-5,16-dioxo-1,5,6,7,8,9,10,10′,11,11′,13a,14,14a,15,16,16a-hexadecahydrospiro[cyclopropa[e]pyrrolo[1,2-a][1,4]diazacyclopentadecine-2,9′-[1,3]dioxolo[4,5-f]pyrano[2,3-c]quinolin]-6-yl]carbamate]	6.92 nM	0.073 nM	–	–	–
CC1(S(=O)(=O)NC(=O)[C@@]23C[C@H]2/C=C\CCCCC[C@H](NC(=O)OC2CCCC2)C(=O)N2C[C@@]4(CCc5c(c(C6CC6)nc6ccc7c(c56)OCO7)O4)C[C@H]2C(=O)N3)CC1 [Example 323, cyclopentyl [(2R,6S,12Z,13aS,14aR,16aS)-7′-cyclopropyl-14a-{[(1-methylcyclopropyl)sulfonyl]carbamoyl}-5,16-dioxo-1,5,6,7,8,9,10,10′,11,11′,13a,14,14a,15,16,16a-hexadecahydrospiro[cyclopropa[e]pyrrolo[1,2-a][1,4]diazacyclopentadecine-2,9′-[1,3]dioxolo[4,5-f]pyrano[2,3-c]quinolin]-6-yl]carbamate]	11.4 nM	0.012 nM	–	–	–
CC(C)(C)COC(=O)N[C@H]1CCCCC/C=C\[C@@H]2C[C@@]2(C(=O)NS(=O)(=O)C2(C)CC2)NC(=O)[C@@H]2C[C@]3(CCc4c(c(C5CC5)nc5ccc6c(c45)OCO6)O3)CN2C1=O [Example 324, 2,2-dimethylpropyl [(2R,6S,12Z,13aS,14aR,16aS)-7′-cyclopropyl-14a-{[(1-methylcyclopropyl)sulfonyl]carbamoyl}-5,16-dioxo-1,5,6,7,8,9,10,10′,11,11′,13a,14,14a,15,16,16a-hexadecahydrospiro[cyclopropa[e]pyrrolo[1,2-a][1,4]diazacyclopentadecine-2,9′-[1,3]dioxolo[4,5-f]pyrano[2,3-c]quinolin]-6-yl]carbamate]	3.62 nM	0.022 nM	–	–	–
CCCOC(=O)N[C@H]1CCCCC/C=C\[C@@H]2C[C@@]2(C(=O)NS(=O)(=O)C2(C)CC2)NC(=O)[C@@H]2C[C@]3(CCc4c(c(C(F)F)nc5ccccc45)O3)CN2C1=O [Example 325, propyl [(2R,6S,12Z,13aS,14aR,16aS)-5′-(difluoromethyl)-14a-{[(1-methylcyclopropyl)sulfonyl]carbamoyl}-5,16-dioxo-1,1′,2′,5,6,7,8,9,10,11,13a,14,14a,15,16,16a-hexadecahydrospiro[cyclopropa[e]pyrrolo[1,2-a][1,4]diazacyclopentadecine-2,3′-pyrano[2,3-c]quinolin]-6-yl]carbamate]	3.23 nM	0.013 nM	–	–	–
Cc1nc2ccccc2c2c1O[C@]1(CC2)C[C@H]2C(=O)N[C@]3(C(=O)NS(=O)(=O)C4(C)CC4)C[C@H]3/C=C\CCCCC[C@H](NC(=O)OC3(C(F)(F)F)CCCC3)C(=O)N2C1 [Example 326, 1-(trifluoromethyl)cyclopentyl [(2R,6S,12Z,13aS,14aR,16aS)-5′-methyl-14a-{[(1-methylcyclopropyl)sulfonyl]carbamoyl}-5,16-dioxo-1,1′,2′,5,6,7,8,9,10,11,13a,14,14a,15,16,16a-hexadecahydrospiro[cyclopropa[e]pyrrolo[1,2-a][1,4]diazacyclopentadecine-2,3′-pyrano[2,3-c]quinolin]-6-yl]carbamate]	1.11 nM	0.023 nM	–	–	–
Cc1nc2cc(F)ccc2c2c1O[C@]1(CC2)C[C@H]2C(=O)N[C@]3(C(=O)NS(=O)(=O)C4(C)CC4)C[C@H]3/C=C\CCCCC[C@H](NC(=O)OC3CCCC3)C(=O)N2C1 [Example 327, cyclopentyl [(2R,6S,12Z,13aS,14aR,16aS)-8′-fluoro-5′-methyl-14a-{[(1-methylcyclopropyl)sulfonyl]carbamoyl}-5,16-dioxo-1,1′,2′,5,6,7,8,9,10,11,13a,14,14a,15,16,16a-hexadecahydrospiro[cyclopropa[e]pyrrolo[1,2-a][1,4]diazacyclopentadecine-2,3′-pyrano[2,3-c]quinolin]-6-yl]carbamate]	–	–	3.61 nM	0.026 nM	–
Cc1nc2cc(F)ccc2c2c1O[C@]1(CC2)C[C@H]2C(=O)N[C@]3(C(=O)NS(=O)(=O)C4(C)CC4)C[C@H]3/C=C\CCCCC[C@H](NC(=O)OC(C)(C)C(F)(F)F)C(=O)N2C1 [Example 328, 1,1,1-trifluoro-2-methylpropan-2-yl [(2R, 6S,12Z,13aS,14aR,16aS)-8′-fluoro-5′-methyl-14a-{[(1-methylcyclopropyl)sulfonyl]carbamoyl}-5,16-dioxo-1,1′,2′,5,6,7,8,9,10,11,13a,14,14a,15,16,16a-hexadecahydrospiro[cyclopropa[e]pyrrolo[1,2-a][1,4]diazacyclopentadecine-2,3′-pyrano[2,3-c]quinolin]-6-yl]carbamate]	–	–	47 nM	0.348 nM	–
CCOC(=O)N[C@H]1CCCCC/C=C\[C@@H]2C[C@@]2(C(=O)NS(=O)(=O)C2(C)CC2)NC(=O)[C@@H]2C[C@]3(CCc4c(c(C(F)F)nc5ccccc45)O3)CN2C1=O [Example 329, ethyl [(2R,6S,12Z,13aS,14aR,16aS)-5′-(difluoromethyl)-14a-{[(1-methylcyclopropyl)sulfonyl]carbamoyl}-5,16-dioxo-1,1′,2′,5,6,7,8,9,10,11,13a,14,14a,15,16,16a-hexadecahydrospiro[cyclopropa[e]pyrrolo[1,2-a][1,4]diazacyclopentadecine-2,3′-pyrano[2,3-c]quinolin]-6-yl]carbamate]	12.2 nM	0.032 nM	–	–	–
